Laboratory results: paper PMC10713630, “Elucidation of the structural basis for ligand binding and translocation in conserved insect odorant receptor co-receptors” (Nature Communications, 2023)
Where “and” joins values, the source holds several entries; their conditions need not be identical. Equal entries are not always repeated. Entries after “also recorded” stand apart in the source; their conditions may differ.

Experiments:
Type in all cases: cell-based
DmelOrco V206S = DmelOrco V206S (Drosophila melanogaster, UniProt Q9VNB5, V206S); experiment: TEVC recording of VUAA1-induced current, DmelOrco V206S in Xenopus oocytes; design: unit not given here; conditions: Fig.4b; individual oocytes
From the text: (§1) All Orco gene sequences were optimized[63] for protein expression in Xenopus laevis oocytes with the GenSmartTM Codon optimization Tool and subcloned into a pGEMHE-derived vector. The wildtype gene of Drosophila melanogaster Orco (DmelOrco) was synthesized by Genscript and subcloned with XmaI/XhoI cloning sites. Site-directed mutagenesis of DmelOrco was done by PCR with the Q5® site directed mutagenesis kit (NEB) using primers optimized with the NEBase Changer online tool and following the supplier’s protocol. After transformation of commercial competent bacteria (XL10 Gold) by standard heat-shock protocol and overnight culture in ampicillin-containing LB plates, positive clones were identified by electrophoretic restriction profile and external sequencing (Genewiz). DNAs of positive clones were amplified with Qiagen MidiPrep Kit and the ORF was fully sequenced. For in vitro transcription, DNAs were linearized with restriction enzyme NotI that cuts a unique site in the 3′ region of the polyA tail. […] DNA and RNA were analyzed by agarose-gel electrophoresis and quantified by spectrophotometry. […]
(§2) Whole cell currents were recorded with the two-electrode voltage-clamp (TEVC) technique with the HiClamp robot (MultiChannel System). […] Data were extracted with M. Vivaudou’s programs[65] and statistically analyzed with Prism 8 (Graphpad).

DmelOrco L141A = DmelOrco L141A (Drosophila melanogaster, UniProt Q9VNB5, L141A); experiment: TEVC recording of VUAA1-induced current, DmelOrco L141A in Xenopus oocytes; conditions: 500 µM VUAA1, TEVC
From the text: as §1, with “sequenced.” for “sequenced. For in vitro transcription, DNAs were linearized with restriction enzyme NotI that cuts a unique site in the 3′ region of the polyA tail.”
Whole cell currents were recorded with the two-electrode voltage-clamp (TEVC) technique with the HiClamp robot (MultiChannel System). […] Data were extracted with M. Vivaudou’s programs[65] and statistically analyzed with Prism 8 (Graphpad). […]
100 by 500 µM of the ligand VUAA1 and measured by TEVC recordings on DmelOrco WT and mutants […]

DmelOrco M210A = DmelOrco M210A (Drosophila melanogaster, UniProt Q9VNB5, M210A); experiment: TEVC recording of VUAA1-induced current, DmelOrco M210A in Xenopus oocytes; conditions: 500 µM VUAA1, TEVC
From the text: as §1, §2

DmelOrco Y400S = DmelOrco Y400S (Drosophila melanogaster, UniProt Q9VNB5, Y400S); experiment: TEVC recording of VUAA1-induced current, DmelOrco Y400S in Xenopus oocytes; conditions: 500 µM VUAA1, TEVC
From the text: as §1, §2

DmelOrco K373A = DmelOrco K373A (Drosophila melanogaster, UniProt Q9VNB5, K373A); experiment: TEVC recording of VUAA1-induced current, DmelOrco K373A in Xenopus oocytes; design: VUAA1-induced current, K373A: unit not given here
From the text: as §1, §2

DmelOrco M210L = DmelOrco M210L (Drosophila melanogaster, UniProt Q9VNB5, M210L); experiment: TEVC recording of VUAA1-induced current, DmelOrco M210L in Xenopus oocytes; conditions: 500 µM VUAA1, TEVC
From the text: as §1, §2

DmelOrco K373E = DmelOrco K373E (Drosophila melanogaster, UniProt Q9VNB5, K373E); experiment: TEVC recording of VUAA1-induced current, DmelOrco K373E in Xenopus oocytes; design: VUAA1-induced current, K373E: unit not given here
From the text: as §1, §2

DmelOrco I181A = DmelOrco I181A (Drosophila melanogaster, UniProt Q9VNB5, I181A); experiment: TEVC recording of VUAA1-induced current, DmelOrco I181A in Xenopus oocytes; design: VUAA1-induced current, i181A: unit not given here
From the text: as §1, §2

Chain of DmelOrco K373A (Q9VNB5 whole entry K373A, the tested form may be a part): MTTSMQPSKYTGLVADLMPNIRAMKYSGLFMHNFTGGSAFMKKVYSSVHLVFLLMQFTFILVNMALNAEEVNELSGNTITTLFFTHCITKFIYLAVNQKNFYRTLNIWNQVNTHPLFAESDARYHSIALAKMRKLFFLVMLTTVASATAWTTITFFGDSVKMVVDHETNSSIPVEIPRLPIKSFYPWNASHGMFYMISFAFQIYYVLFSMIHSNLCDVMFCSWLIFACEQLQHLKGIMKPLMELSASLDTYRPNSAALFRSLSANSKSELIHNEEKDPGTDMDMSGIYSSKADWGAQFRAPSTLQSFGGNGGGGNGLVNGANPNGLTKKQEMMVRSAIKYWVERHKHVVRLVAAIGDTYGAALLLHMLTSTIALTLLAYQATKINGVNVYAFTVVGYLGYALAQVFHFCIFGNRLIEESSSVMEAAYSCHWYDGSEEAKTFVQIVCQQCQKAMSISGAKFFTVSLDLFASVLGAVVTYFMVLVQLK
Chain of DmelOrco I181A (Q9VNB5 whole entry I181A, the tested form may be a part): as the sequence (Q9VNB5 whole entry K373A, the tested form may be a part) above, with I181A, A373K counted along it
Chain of DmelOrco V206S (Q9VNB5 whole entry V206S, the tested form may be a part): as the sequence (Q9VNB5 whole entry K373A, the tested form may be a part) above, with V206S, A373K counted along it
Chain of DmelOrco K373E (Q9VNB5 whole entry K373E, the tested form may be a part): as the sequence (Q9VNB5 whole entry K373A, the tested form may be a part) above, with A373E counted along it
Chain of DmelOrco L141A (Q9VNB5 whole entry L141A, the tested form may be a part): as the sequence (Q9VNB5 whole entry K373A, the tested form may be a part) above, with L141A, A373K counted along it
Chain of DmelOrco M210A (Q9VNB5 whole entry M210A, the tested form may be a part): as the sequence (Q9VNB5 whole entry K373A, the tested form may be a part) above, with M210A, A373K counted along it
Chain of DmelOrco M210L (Q9VNB5 whole entry M210L, the tested form may be a part): as the sequence (Q9VNB5 whole entry K373A, the tested form may be a part) above, with M210L, A373K counted along it
Chain of DmelOrco Y400S (Q9VNB5 whole entry Y400S, the tested form may be a part): as the sequence (Q9VNB5 whole entry K373A, the tested form may be a part) above, with A373K, Y400S counted along it

CCc1ccc(NC(=O)CSc2nnc(-c3cccnc3)n2CC)cc1 [VUAA1, N-(4-ethylphenyl)−2-((4-ethyl-5-(3-pyridinyl)−4H-1,2,4-triazol-3-yl)thio)acetamide]
VUAA1-induced current, V206S (DmelOrco V206S): 3.68 and 9.72 and 7.51 and 6.18 and 8.36 and 5.44 and 4.17 and 5.76 | Response to VUAA1 compared with WT (DmelOrco L141A): did not induce significant change | Current induced by VUAA1 (median) (DmelOrco M210A): 5.72 µA | Response to VUAA1 compared with WT (DmelOrco Y400S): did not significantly change the response | Response to VUAA1 compared with WT (DmelOrco K373A; 500 µM VUAA1, TEVC, K373A): did not significantly affect the amplitude of activation; also recorded: did not change the response | VUAA1-induced current, K373A (DmelOrco K373A; Fig.4b, individual oocytes): 6.85 and 4.61 and 2.07 and 4.45 and 3.44 and 3.51 and 4.3 and 6.42 and 4.68 and 7.17 and 5.08 | Current induced by VUAA1 (median) (DmelOrco M210L): 6.19 µA | Current induced by VUAA1 (median) (DmelOrco K373E; 500 µM VUAA1, TEVC, K373E): 7.47 µA | VUAA1-induced current, K373E (DmelOrco K373E; Fig.4b, individual oocytes): 4.46 and 4.23 and 7.21 and 7.53 and 6.82 and 10.02 and 4.07 and 5.42 and 9.17 and 11.32 and 9.58 and 7.4 and 16.4 and 9.48 and 7.37 and 12.12 | Response to VUAA1 compared with WT (DmelOrco I181A; 500 µM VUAA1, TEVC, I181A): did not significantly affect the amplitude of activation | VUAA1-induced current, i181A (DmelOrco I181A; Fig.4b, individual oocytes): 2.04 and 7.33 and 5.46 and 2.9 and 2.3 and 1.5 and 5.38 and 11.56 and 4.17 and 3.69
